Source: ChEMBL document CHEMBL2424537, “Design, synthesis, biological evaluation and docking study of 5-oxo-4,5-dihydropyrano[3,2-c]chromene derivatives as acetylcholinesterase and butyrylcholinesterase inhibitors” (Eur J Med Chem, 2013)

Columns and labels:
[1] = Selectivity ratio of IC50 for equine serum BChE to IC50 for electric eel AChE
Cholinesterase = Cholinesterase (Equus caballus, UniProt P81908); assay: Inhibition of equine serum BChE using butyrylthiocholine iodide as substrate after 2 mins by Ellman's method
Cholinesterase, sequence (P81908 whole entry): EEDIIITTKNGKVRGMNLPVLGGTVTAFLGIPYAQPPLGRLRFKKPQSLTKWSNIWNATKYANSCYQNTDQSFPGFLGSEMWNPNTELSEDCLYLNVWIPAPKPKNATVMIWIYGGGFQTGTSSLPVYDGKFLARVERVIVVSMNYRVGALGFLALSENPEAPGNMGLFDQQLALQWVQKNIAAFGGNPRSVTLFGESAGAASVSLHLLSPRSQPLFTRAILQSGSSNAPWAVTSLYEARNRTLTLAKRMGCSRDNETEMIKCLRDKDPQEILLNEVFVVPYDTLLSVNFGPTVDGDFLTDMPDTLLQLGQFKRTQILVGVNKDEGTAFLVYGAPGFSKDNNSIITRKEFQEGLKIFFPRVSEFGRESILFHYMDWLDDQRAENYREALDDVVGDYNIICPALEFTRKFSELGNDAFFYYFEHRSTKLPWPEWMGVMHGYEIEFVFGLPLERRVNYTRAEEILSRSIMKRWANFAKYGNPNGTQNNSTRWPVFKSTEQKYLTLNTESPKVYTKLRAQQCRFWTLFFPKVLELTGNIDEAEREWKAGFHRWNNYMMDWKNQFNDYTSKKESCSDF

Acetylcholinesterase = Acetylcholinesterase (Electrophorus electricus, UniProt O42275)
Acetylcholinesterase, sequence (O42275 whole entry): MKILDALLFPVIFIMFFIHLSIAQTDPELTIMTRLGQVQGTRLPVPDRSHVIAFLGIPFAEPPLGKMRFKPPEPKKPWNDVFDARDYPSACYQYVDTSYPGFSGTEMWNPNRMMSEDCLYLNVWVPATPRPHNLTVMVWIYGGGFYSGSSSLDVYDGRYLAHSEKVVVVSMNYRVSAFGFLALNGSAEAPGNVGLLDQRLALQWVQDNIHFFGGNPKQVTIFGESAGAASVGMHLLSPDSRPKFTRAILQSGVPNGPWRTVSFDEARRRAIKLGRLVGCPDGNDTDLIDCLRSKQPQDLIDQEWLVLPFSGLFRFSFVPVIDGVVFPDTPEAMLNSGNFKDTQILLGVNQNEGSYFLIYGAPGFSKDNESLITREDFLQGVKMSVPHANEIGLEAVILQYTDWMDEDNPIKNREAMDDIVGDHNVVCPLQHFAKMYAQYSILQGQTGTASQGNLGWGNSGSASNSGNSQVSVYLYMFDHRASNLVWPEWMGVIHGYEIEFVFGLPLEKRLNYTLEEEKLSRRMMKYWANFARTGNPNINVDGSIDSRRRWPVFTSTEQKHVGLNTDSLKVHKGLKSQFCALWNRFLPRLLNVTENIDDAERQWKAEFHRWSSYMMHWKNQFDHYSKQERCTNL
Description: Inhibition of electric eel AChE using acetylthiocholine iodide as substrate after 2 mins by Ellman's method

| SMILES | Ratio IC50 [1] | IC50 (Cholinesterase) [µM] | IC50 (Acetylcholinesterase) [µM] |
| --- | --- | --- | --- |
| N#CC1=C(N)Oc2c(c(=O)oc3ccccc23)C1c1cc[n+](Cc2ccc(Cl)c(Cl)c2)cc1 (stereo not given) | 28.9 | 1.27 | 0.044 |
| N#CC1=C(N)Oc2c(c(=O)oc3ccccc23)C1c1ccc[n+](Cc2cccc(Cl)c2)c1 (stereo not given) | 5.2 | 38.4 | 7.4 |
| N#CC1=C(N)Oc2c(c(=O)oc3ccccc23)C1c1cc[n+](Cc2cccc(F)c2)cc1 (stereo not given) | > 17.8 | > 50 | 2.8 |
| N#CC1=C(N)Oc2c(c(=O)oc3ccccc23)C1c1ccc[n+](Cc2ccccc2F)c1 (stereo not given) | 22.8 | 41 | 1.8 |
| Cc1cccc(C[n+]2ccc(C3C(C#N)=C(N)Oc4c3c(=O)oc3ccccc43)cc2)c1 (stereo not given) | 2.6 | 5.5 | 1.9 |
| N#CC1=C(N)Oc2c(c(=O)oc3ccccc23)C1c1ccc[n+](Cc2cccc(F)c2)c1 (stereo not given) | > 25 | > 50 | 2 |
| N#CC1=C(N)Oc2c(c(=O)oc3ccccc23)C1c1ccc[n+](Cc2ccc(F)cc2)c1 (stereo not given) | 1 | 2.17 | 2.17 |
| N#CC1=C(N)Oc2c(c(=O)oc3ccccc23)C1c1cc[n+](Cc2ccc(F)cc2)cc1 (stereo not given) | 48.4 | 1.84 | 0.038 |
| Cc1ccccc1C[n+]1ccc(C2C(C#N)=C(N)Oc3c2c(=O)oc2ccccc32)cc1 (stereo not given) | 4.8 | 17.8 | 3.7 |
| N#CC1=C(N)Oc2c(c(=O)oc3ccccc23)C1c1cc[n+](Cc2ccccc2Cl)cc1 (stereo not given) | 3.2 | 4.8 | 1.5 |
| N#CC1=C(N)Oc2c(c(=O)oc3ccccc23)C1c1cc[n+](Cc2ccccc2F)cc1 (stereo not given) | 12.4 | 36 | 2.9 |
| N#CC1=C(N)Oc2c(c(=O)oc3ccccc23)C1c1ccc[n+](Cc2ccccc2Cl)c1 (stereo not given) | 11.2 | 11.2 | 1 |
| N#CC1=C(N)Oc2c(c(=O)oc3ccccc23)C1c1cc[n+](Cc2cccc(Cl)c2)cc1 (stereo not given) | 45.4 | 21.8 | 0.48 |
| Cc1cccc(C[n+]2cccc(C3C(C#N)=C(N)Oc4c3c(=O)oc3ccccc43)c2)c1 (stereo not given) | 18.1 | 14.3 | 0.79 |
| N#CC1=C(N)Oc2c(c(=O)oc3ccccc23)C1c1cc[n+](Cc2ccc(Cl)cc2Cl)cc1 (stereo not given) | 0.68 | 0.566 | 0.831 |
